From patent publication US20050130890A1, “Amyloid beta is a ligand for FPR class receptors” (priority 2001, published 2005)

System: mouse neutrophils
Test: Calcium flux in mouse neutrophils
Format: cell-based
Details: PTX 250 ng/ml for 4 h
Protocol: Preparation of Mouse Neutrophils. Neutrophils were obtained from the peritoneal cavity of wild type and gene knockout litter mates of F1 and F6 backcrosses of 129/sV FPR−/− mice with C57B1/6 mice 3-4 h after intraperitoneal injection of a 3% thioglycollate solution, as previously described (Gao J-L. et al. 1999 J Exp Med 189:657-662). The cell population was consistently composed of >90% neutrophils, as determined by light microscopy of DiffQuick-stained cytospins. Thus, hereafter we will refer to this cell preparation as neutrophils.
Calcium Flux Analysis. To monitor intracellular Ca^2+ concentration, adherent cells were harvested by incubation in phosphate-buffered saline at 37° C. for 15 min and then incubated in phosphate-buffered saline containing 2.5 μM Fura-2/AM at 37° C. for 45 min. […] Data were recorded every 200 ms as the relative ratio of fluorescence emitted at 510 nm following sequential excitation at 340 and 380 nm. The following ligands were evaluated: Aβ (nonfibrillated, human residues 1-42; California Peptide Research; Napa, Calif.), fMet-Leu-Phe (fMLF; Sigma), ATP (Life Technologies), and the chemokines RANTES (regulated upon activation normal T-cell expressed and secreted), SDF-1 (stromal cell-derived factor-1), 1-309, fractalkine, MIP-1α (macrophage inflammatory protein-1α), and KC (Peprotech, Rocky Hill, N.J.). […]

pertussis toxin
effect of pretreatment on Aβ induction of calcium flux: completely blocked
